From EP3521435A1, “A HIGH STRINGENCY SELECTION SYSTEM FOR PROTEIN EXPRESSION IN PROLINE-AUXOTROPHIC CELLS” (Bayer AG, priority 2018, dated 2019)

Legend:
[1] = system: CHO-K1 cells; experiment: Batch fermentation in shake flasks of human IgG1 expressing stable cell populations (Poros A-HPLC titer, viable cell density, viability); assay type: cell-based, Chinese hamster; settings: pJF1576; for Productivity profile: human IgG1
[2] = system: CHO-K1 cells; experiment: Flow cytometric analysis of GFP expression (MFI, high fluorescing cells) in stably selected cell populations; assay type: cell-based, Chinese hamster; settings: for improvement of MFI as compared to Puromycin selected cultures / increase of the frequency of high fluorescing cells as compared to Puromycin selected cultures: DHP in proline-free medium
In short: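 Suspension CHO-K1 nucleofected (1e7 cells, 5 µg linearized DNA) with GFP vectors carrying puromycin marker plus SV40-driven murine P5CS; seeded 2e5 viable cells/ml, selected with 10 µg/ml puromycin or in proline/ornithine-free medium ± added pressure, viability tracked over time. GFP read by flow cytometry (yellow channel, PI-excluded dead cells): MFI and % high fluorescers above set threshold.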

[3] = Day 7 after inoculation, selected in CD-Fusion w/o Pro + 0.2 mM DHP, non-selecting conditions
[4] = Day 7 after inoculation, selected in CD-Fusion w/o Pro + 0.2 mM DHP, selective conditions
[5] = Day 7 after inoculation, selected in CD-Fusion w/o Pro + 0.4 mM DHP, non-selecting conditions
[6] = Day 7 after inoculation, selected in CD-Fusion w/o Pro + 0.4 mM DHP, selective conditions
[7] = Day 9 after inoculation, selected in CD-Fusion w/o Pro + 0.05 mM DHP, non-selecting conditions
[8] = Day 9 after inoculation, selected in CD-Fusion w/o Pro + 0.1 mM DHP, non-selecting conditions
[9] = Day 9 after inoculation, selected in CD-Fusion w/o Pro + 0.2 mM DHP, non-selecting conditions
[10] = Day 9 after inoculation, selected in CD-Fusion w/o Pro + 0.4 mM DHP, non-selecting conditions
[11] = Table 11, day 19 post-transfection, pJF1555, CD-Fusion w/o Pro + 0.2 mM DHP
[12] = Table 13, day 19 post-transfection, pJF1555, CD-Fusion w/o Pro + 0.05 mM DHP
[13] = Table 13, day 19 post-transfection, pJF1555, CD-Fusion w/o Pro + 0.1 mM DHP
[14] = Table 13, day 19 post-transfection, pJF1555, CD-Fusion w/o Pro + 0.2 mM DHP
[15] = Table 13, day 19 post-transfection, pJF1555, CD-Fusion w/o Pro + 0.4 mM DHP
[16] = day 22 post-transfection, pJF2055, CD-Fusion w/o Pro + 0.02 mM DHP
[17] = day 22 post-transfection, pJF2055, CD-Fusion w/o Pro + 0.03 mM DHP
[18] = day 22 post-transfection, pJF2055, CD-Fusion w/o Pro + 0.04 mM DHP
[19] = day 22 post-transfection, pJF2055, CD-Fusion w/o Pro + 0.06 mM DHP
[20] = day 22 post-transfection, pJF2055, CD-Fusion w/o Pro + 0.07 mM DHP
[21] = day 22 post-transfection, pJF2055, CD-Fusion w/o Pro + 0.08 mM DHP
[22] = day 22 post-transfection, pJF2303, CD-Fusion w/o Pro + 0.02 mM DHP
[23] = day 22 post-transfection, pJF2303, CD-Fusion w/o Pro + 0.04 mM DHP
[24] = day 22 post-transfection, pJF2303, CD-Fusion w/o Pro + 0.06 mM DHP
[25] = day 22 post-transfection, pJF2303, CD-Fusion w/o Pro + 0.08 mM DHP
[26] = day 22 post-transfection, pJF2303, CD-Fusion w/o Pro + 0.2 mM DHP
[27] = day 22 post-transfection, pJF2303, CD-Fusion w/o Pro + 0.3 mM DHP
[28] = day 22 post-transfection, pJF2303, CD-Fusion w/o Pro + 0.4 mM DHP
[29] = day 22 post-transfection, pJF2303, CD-Fusion w/o Pro + 0.5 mM DHP
[30] = day 29 post-transfection, pJF2460, CD-Fusion w/o Pro + 0.01 mM DHP
[31] = day 29 post-transfection, pJF2460, CD-Fusion w/o Pro + 0.03 mM DHP

O=C(O)[C@@H]1C=CCN1 [DHP, 3,4-Dehydro-L-Proline]
Viable cell density profile ([1]; Day 7 after inoculation, selected in CD-Fusion w/o Pro + 0.1 mM DHP, selective conditions): 4.0E+06 VCD/ml
Viability profile [1, 3]: 97.4%
Viable cell density profile [1, 3]: 9,6E+06 VCD/ml
Viability profile [1, 4]: 93.2%
Viable cell density profile [1, 4]: 9.1E+06 VCD/ml
Viability profile [1, 5]: 98.1%
Viable cell density profile [1, 5]: 1,1E+07 VCD/ml
Viability profile [1, 6]: 56.1%
Viable cell density profile [1, 6]: 6.9E+06 VCD/ml
Productivity profile [1, 7]: 115.5 mg/L
Productivity profile [1, 8]: 127.1 mg/L
Productivity profile [1, 9]: 153.7 mg/L
Productivity profile [1, 10]: 164.7 mg/L
Viability profile [1, 7]: 19.5%
Viable cell density profile [1, 7]: 2,5E+06 VCD/ml
Viability profile [1, 8]: 5.1%
Viable cell density profile [1, 8]: 6,4E+05 VCD/ml
Viability profile [1, 9]: 18.7%
Viable cell density profile [1, 9]: 2,2E+06 VCD/ml
Viability profile [1, 10]: 21.7%
Viable cell density profile [1, 10]: 3,1E+06 VCD/ml
increase in MFI as compared to Puromycin-selected population ([2]; 0.2 mM DHP in proline-free medium, pJF1555, #4 vs #1 of Table 11): 37%
increase of the frequency of high fluorescing cells ([2]; 0.2 mM DHP in proline-free medium, pJF1555, vs Puromycin-selected population): 71%
improvement of MFI of the stable cell population ([2]; 0.4 mM DHP, pJF1555, Table 13): 3 fold
increase of the frequency of high fluorescing cells ([2]; 0.4 mM DHP, pJF1555, Table 13): 8.7-12.6 fold
Frequency of high fluorescing cells [2, 11]: 5.8%
Median Fluorescence Intensity (MFI) (yellow) [2, 11]: 17880
Frequency of high fluorescing cells [2, 12]: 1.7%
Median Fluorescence Intensity (MFI) (yellow) [2, 12]: 7599
Frequency of high fluorescing cells [2, 13]: 5.6%
Median Fluorescence Intensity (MFI) (yellow) [2, 13]: 14267
Frequency of high fluorescing cells [2, 14]: 5.8%
Median Fluorescence Intensity (MFI) (yellow) [2, 14]: 13748
Frequency of high fluorescing cells [2, 15]: 13.0%
Median Fluorescence Intensity (MFI) (yellow) [2, 15]: 19806
sensitivity to DHP treatment of cultures transfected with pJF2055 relative to pJF2303 ([2]; concentration ranges for DHP giving improvement): about 10 fold
Frequency of high fluorescing cells [2, 16]: 17.3%
Median Fluorescence Intensity (MFI) (yellow) [2, 16]: 24032
Frequency of high fluorescing cells [2, 17]: 18.5%
Median Fluorescence Intensity (MFI) (yellow) [2, 17]: 22607
Frequency of high fluorescing cells [2, 18]: 31.3%
Median Fluorescence Intensity (MFI) (yellow) [2, 18]: 29703
Frequency of high fluorescing cells [2, 19]: 6.9%
Median Fluorescence Intensity (MFI) (yellow) [2, 19]: 15210
Frequency of high fluorescing cells [2, 20]: 8.7%
Median Fluorescence Intensity (MFI) (yellow) [2, 20]: 12393
Frequency of high fluorescing cells [2, 21]: 9.3%
Median Fluorescence Intensity (MFI) (yellow) [2, 21]: 9617
Frequency of high fluorescing cells [2, 22]: 3.3%
Median Fluorescence Intensity (MFI) (yellow) [2, 22]: 12080
Frequency of high fluorescing cells [2, 23]: 5.7%
Median Fluorescence Intensity (MFI) (yellow) [2, 23]: 15503
Frequency of high fluorescing cells [2, 24]: 3.2%
Median Fluorescence Intensity (MFI) (yellow) [2, 24]: 12536
Frequency of high fluorescing cells [2, 25]: 3.7%
Median Fluorescence Intensity (MFI) (yellow) [2, 25]: 14603
Frequency of high fluorescing cells [2, 26]: 14.7%
Median Fluorescence Intensity (MFI) (yellow) [2, 26]: 19163
Frequency of high fluorescing cells [2, 27]: 17.4%
Median Fluorescence Intensity (MFI) (yellow) [2, 27]: 22030
Frequency of high fluorescing cells [2, 28]: 24.5%
Median Fluorescence Intensity (MFI) (yellow) [2, 28]: 26155
Frequency of high fluorescing cells [2, 29]: 19.6%
Median Fluorescence Intensity (MFI) (yellow) [2, 29]: 23616
Frequency of high fluorescing cells [2, 30]: 15.3%
Median Fluorescence Intensity (MFI) (yellow) [2, 30]: 19951
Frequency of high fluorescing cells [2, 31]: 43.6%
Median Fluorescence Intensity (MFI) (yellow) [2, 31]: 31838
improvement of MFI as compared to Puromycin selected cultures ([2]; pJF2055, Table 26): up to 2.6 fold
increase of the frequency of high fluorescing cells as compared to Puromycin selected cultures ([2]; pJF2055, Table 26): 7.4-12.7 fold
improvement of MFI as compared to Puromycin selected cultures ([2]; pJF2303, Table 26): up to 2.3 fold
increase of the frequency of high fluorescing cells as compared to Puromycin selected cultures ([2]; pJF2303, Table 26): 5.8-9.9 fold
improvement of MFI as compared to Puromycin selected cultures ([2]; pJF2460, Table 28): up to 2.8 fold
increase of the frequency of high fluorescing cells as compared to Puromycin selected cultures ([2]; pJF2460, Table 28): up to 19 fold
